What was measured:
Assay type in all cases: binding
[1] = system: triplex DNA (DNA-1, DNA-2, DNA-3); test: UV melting (260 nm) of unmodified triplex DNA-1, DNA-2, DNA-3 (no nanoparticles); details: duplex melting transition; solution-phase unmodified DNA, 1 μM each strand, 6 μM binder, 0.5 M NaCl 10 mM PBS
Protocol: To compare the results from the previous examples with more traditional screening techniques, all eight intercalators were screened, plus a control, by monitoring UV absorbance melting curves (260 nm) of unmodified DNA-1, DNA-2, and DNA-3 (1 μM each), with each intercalator (10 μM), (DNA-1; 3′ TTCTTCTTTTTT CT-5′. DNA-2: 5′-TTCTTCTTTTTTCT-3′, DNA-3: 5′-AAGAAGAAAAAA-3′). (FIG. 2B). The melting experiment performed in the presence of BePl has two melting transitions. The first Tm at 34.8° C. is associated with the denaturation of the triplex structure and the second Tm at 61.4° C. is representative of the corresponding duplex.
To determine the Tm of the duplex DNA in the presence of DNA binders, 2 μM duplex DNA and 5 μM DNA binder were combined in 0.3 M NaCl 10 mM PBS. To determine the Tm of the triplex DNA in the presence of DNA binders, 1 μM of each strand and 6 μM of each DNA binder were combined in 0.5 M NaCl 10 mM PBS. UV-vis melting curves were measured on a CARRY 500 spectrophotometer equipped with a circulating bath. The melting process was monitored by measuring the change in extinction at 260 nm. The solutions were stirred continuously with a magnetic stir bar as the solution temperature was increased at a rate of 0.5° C./min. The first derivative generated from the melting curves was used to determine the Tm.
A melting transition associated with the triple helix was found only for experiments performed in the presence of BePI (34.8° C.) and CORA (17.1° C.) where BePI is determined to be the stronger binder. This is in agreement with the results determined by the chip-based scanometric method described above.

[2] = system: duplex DNA between NP-1 and NP-2; test: Melting temperature of NP-1/NP-2 gold nanoparticle duplex nanoassemblies (520 nm); details: NP-1 and NP-2 1.5 nM each, intercalator 5 μM, 10 mM PBS pH 7.0, NaCl 0.1 M, control 26.4
Text: This method also utilizes the aggregation-induced, red-to-blue color change associated with 13 nm Au nanoparticles. Gold nanoparticles are functionalized with one of two complementary thiol-modified oligonucleotide strands and are denoted NP-1 and NP-2. When NP-1 and NP-2 are combined, they form aggregates through a reversible DNA hybridization process. This process results in a red-to-blue color change due to a red-shifting and dampening of the nanoparticle plasmon resonance. Increasing the temperature above the melting temperature of the DNA reverses the process, and the particles dissociate with a concomitant blue-to-red color change. […] This increased stability is reflected by an increase in melting temperature. Note that the shape and breadth of the transition is almost independent of the intercalator (FIG. 4). Therefore, by monitoring the blue-to-red color transition of hybridized oligonucleotide-modified Au nanoparticles in the presence of different compounds, the relative strength of intercalator binding can be determined with the naked-eye.
The assay is initiated by mixing NP-1 and NP-2 (1.5 nM each) in a 1:1 molar ratio in 10 mM PBS buffer (pH=7.0, NaCl 0.1 M. The melting temperatures of the nanoassemblies (NP-1 and NP-2) were then determined in the presence of 4′,6-diamidino-2-phenylindole (DAPI), ellipticine (EIPT), Amsacrine (AMSA), daunorubicin (DNR), anthraquinone-2-carboxylic acid (AQ2A), ethidium bromide (EB), and 9-aminoacridine (9-AA) (5 μM), respectively. UV melting profiles were measured by monitoring the absorbance at 520 nm at a scan rate of 0.5° C. min^−1. Melting temperatures were determined by taking the maxima of the first derivative of the melting curves. Control experiments were run by determining the melting temperatures of unmodified duplex DNA (DNA-1: 5′-TAACAATAA-3′, DNA-2: 5′-TTATTGTTA-3′) in the presence of all seven intercalators shown in Table 1.

[3] = system: duplex DNA on chip surface; test: Chip-based scanometric detection of duplex DNA binders (silver enhancement); details: binder 5 μM
Protocol: N-Hydroxysuccinimide-activated Codelink glass microarray slides (Amersham, G. E. Healthcare) were arrayed with amine-terminated oligonucleotides (5′-TAA CAA TAA-A10-NH2-3′, Integrated DNA Technologies, Inc.) according to the manufacturer's protocol. The oligonucleotides were printed in triplicate using a GME 418 robotic pin-and-ring microarrayer (Affymetrix).
For scanometric detection of duplex or triplex DNA binding molecules, Au nanoparticles (1 nM) and DNA binding molecules (5 μM) in 10 mM PBS buffer of varying NaCl concentrations were added to the microarray slide under hybridization wells (Nanosphere, Inc.). For detection of triplex binders, 150 nM DNA-3 was added. DNA hybridization proceeded for 30 min (for duplex DNA binders) or 1 h (for triplex DNA binders) in a humidity chamber. After hybridization, the slides were washed three times with 0.5 M NaNO3 containing 0.02% Tween 20. The arrays were dried using a benchtop spinner. Silver enhancement solution (Nanosphere, Inc.) was added for Au-NP signal amplification (1 mL total volume/array, 1.5-min development time for duplex DNA binding molecules and 3 min for triplex binding molecules). The reaction was terminated by washing the slides with NANOpure® water and spin-drying. Light-scattering images from the silver-enhanced chips were recorded using the high-resolution Verigene ID system (Nanosphere, Inc.).
Capture strands of synthetic oligonucleotides are patterned on a glass chip using a microarrayer. The DNA chip is then exposed to DNA functionalized Au nanoparticles (complementary to the capture sequence) and a duplex DNA binder. […]
The hybridization of single stranded DNA to form duplex DNA is a reversible process and the stability of the duplex is affected by several factors such as temperature and salt concentration. […] Therefore, by performing the nanoparticle hybridization process in the presence of different duplex DNA binders as a function of temperature, the relative binding strength of duplex DNA binders can be determined.

| Compound | Tm 2-1 [1] | Tm^a, melting temperature of nanoassemblies [2] | signal after silver enhancement ([3]; hybridization at 30° C.) | signal after silver enhancement ([3]; temperature further increased above 30° C.) |
| --- | --- | --- | --- | --- |
| Nc1c2ccccc2nc2ccccc12 [9-AA, 9-aminoacridine] | 59.1 °C | 30.9 °C |  |  |
| O=C(O)c1ccc2c(c1)C(=O)c1ccccc1C2=O [AQ2A, anthraquinone-2-carboxylic acid] | 59.1 °C | 28.5 °C |  |  |
| N=C(N)c1ccc(-c2cc3ccc(C(=N)N)cc3[nH]2)cc1 [DAPI, 4′,6-diamidino-2-phenylindole] | 66.3 °C | 50.4 °C | leaving the intermediate and strong DNA binders | leaving only the strong duplex DNA binder |
| COc1cccc2c1C(=O)c1c(O)c3c(c(O)c1C2=O)C[C@@](O)(C(C)=O)C[C@@H]3O[C@H]1C[C@H](N)[C@H](O)[C@H](C)O1 [DNR, daunorubicin] | 61.7 °C | 38.4 °C | leaving the intermediate and strong DNA binders |  |
| Cc1c2ccncc2c(C)c2c1[nH]c1ccccc12 [EIPT, ellipticine] | 59.3 °C | 29.2 °C |  |  |
